{"source": "PubChem BioAssay (NCI)", "experiment_in_all_cases": "NCI-60 cell line screen, 48 h", "key": {"HL-60(TB) leukemia": {"test_system": "HL-60(TB) leukemia"}, "M14 melanoma": {"test_system": "M14 melanoma"}, "NCI-H226 lung": {"test_system": "NCI-H226 lung"}, "OVCAR-5 ovarian": {"test_system": "OVCAR-5 ovarian"}, "LXFL 529 NSCLC": {"test_system": "LXFL 529 NSCLC"}, "U251 CNS": {"test_system": "U251 CNS"}, "OVCAR-4 ovarian": {"test_system": "OVCAR-4 ovarian"}, "SK-MEL-2 melanoma": {"test_system": "SK-MEL-2 melanoma"}, "UO-31 renal": {"test_system": "UO-31 renal"}, "CCRF-CEM leukemia": {"test_system": "CCRF-CEM leukemia"}, "HT29 colon": {"test_system": "HT29 colon"}, "NCI-H522 lung": {"test_system": "NCI-H522 lung"}, "SF-268 CNS": {"test_system": "SF-268 CNS"}, "EKVX NSCLC": {"test_system": "EKVX NSCLC"}, "SNB-78 CNS": {"test_system": "SNB-78 CNS"}, "OVCAR-8 ovarian": {"test_system": "OVCAR-8 ovarian"}, "SW-620 colon": {"test_system": "SW-620 colon"}, "TK-10 renal": {"test_system": "TK-10 renal"}, "DLD-1 colon": {"test_system": "DLD-1 colon"}, "SN12C renal": {"test_system": "SN12C renal"}, "SK-MEL-28 melanoma": {"test_system": "SK-MEL-28 melanoma"}, "OVCAR-3 ovarian": {"test_system": "OVCAR-3 ovarian"}, "COLO 205 colon": {"test_system": "COLO 205 colon"}, "UACC-62 melanoma": {"test_system": "UACC-62 melanoma"}, "CAKI-1 renal": {"test_system": "CAKI-1 renal"}, "KM12 colon": {"test_system": "KM12 colon"}, "HOP-62 NSCLC": {"test_system": "HOP-62 NSCLC"}, "A498 renal": {"test_system": "A498 renal"}, "HOP-92 NSCLC": {"test_system": "HOP-92 NSCLC"}, "M19-MEL melanoma": {"test_system": "M19-MEL melanoma"}, "SF-295 CNS": {"test_system": "SF-295 CNS"}, "MOLT-4 leukemia": {"test_system": "MOLT-4 leukemia"}, "SR leukemia": {"test_system": "SR leukemia"}, "SNB-75 CNS": {"test_system": "SNB-75 CNS"}, "UACC-257 melanoma": {"test_system": "UACC-257 melanoma"}, "A549 NSCLC": {"test_system": "A549 NSCLC"}, "MALME-3M melanoma": {"test_system": "MALME-3M melanoma"}, "IGROV1 ovarian": {"test_system": "IGROV1 ovarian"}, "HCT-116 colon": {"test_system": "HCT-116 colon"}, "XF 498 CNS": {"test_system": "XF 498 CNS"}, "NCI-H460 lung": {"test_system": "NCI-H460 lung"}, "SK-OV-3 ovarian": {"test_system": "SK-OV-3 ovarian"}, "ACHN renal": {"test_system": "ACHN renal"}, "NCI-H23 lung": {"test_system": "NCI-H23 lung"}, "786-0 renal": {"test_system": "786-0 renal"}, "SNB-19 CNS": {"test_system": "SNB-19 CNS"}, "K-562 leukemia": {"test_system": "K-562 leukemia"}, "RPMI-8226 leukemia": {"test_system": "RPMI-8226 leukemia"}}, "note": "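Method: 48-hour compound exposure of cells in 96-well plates, five concentrations, linear interpolation of endpoints. The concentration for full growth arrest is given as TGI.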", "data": [{"compound": "O=C1OCCC1(Cc1ccc(Cl)cc1)Cc1ccc(Cl)cc1", "values": [{"measurement": "TGI", "setting": "HL-60(TB) leukemia", "result": "> 100", "unit": "µM"}, {"measurement": "TGI", "setting": "M14 melanoma", "result": "> 100", "unit": "µM"}, {"measurement": "TGI", "setting": "NCI-H226 lung", "result": "> 100", "unit": "µM"}, {"measurement": "TGI", "setting": "OVCAR-5 ovarian", "result": "> 100", "unit": "µM"}, {"measurement": "TGI", "setting": "LXFL 529 NSCLC", "result": "> 100", "unit": "µM"}, {"measurement": "TGI", "setting": "U251 CNS", "result": "> 100", "unit": "µM"}, {"measurement": "TGI", "setting": "OVCAR-4 ovarian", "result": "> 100", "unit": "µM"}, {"measurement": "TGI", "setting": "SK-MEL-2 melanoma", "result": "> 100", "unit": "µM"}, {"measurement": "TGI", "setting": "UO-31 renal", "result": "> 100", "unit": "µM"}, {"measurement": "TGI", "setting": "CCRF-CEM leukemia", "result": "> 100", "unit": "µM"}, {"measurement": "TGI", "setting": "HT29 colon", "result": "> 100", "unit": "µM"}, {"measurement": "TGI", "setting": "NCI-H522 lung", "result": "> 100", "unit": "µM"}, {"measurement": "TGI", "setting": "SF-268 CNS", "result": "> 100", "unit": "µM"}, {"measurement": "TGI", "setting": "EKVX NSCLC", "result": "> 100", "unit": "µM"}, {"measurement": "TGI", "setting": "SNB-78 CNS", "result": "> 100", "unit": "µM"}, {"measurement": "TGI", "setting": "OVCAR-8 ovarian", "result": "> 100", "unit": "µM"}, {"measurement": "TGI", "setting": "SW-620 colon", "result": "> 100", "unit": "µM"}, {"measurement": "TGI", "setting": "TK-10 renal", "result": "> 100", "unit": "µM"}, {"measurement": "TGI", "setting": "DLD-1 colon", "result": "> 100", "unit": "µM"}, {"measurement": "TGI", "setting": "SN12C renal", "result": "> 100", "unit": "µM"}, {"measurement": "TGI", "setting": "SK-MEL-28 melanoma", "result": "> 100", "unit": "µM"}, {"measurement": "TGI", "setting": "OVCAR-3 ovarian", "result": "> 100", "unit": "µM"}, {"measurement": "TGI", "setting": "COLO 205 colon", "result": "> 100", "unit": "µM"}, {"measurement": "TGI", "setting": "UACC-62 melanoma", "result": "> 100", "unit": "µM"}, {"measurement": "TGI", "setting": "CAKI-1 renal", "result": "> 100", "unit": "µM"}, {"measurement": "TGI", "setting": "KM12 colon", "result": "> 100", "unit": "µM"}, {"measurement": "TGI", "setting": "HOP-62 NSCLC", "result": 89.2, "unit": "µM"}, {"measurement": "TGI", "setting": "A498 renal", "result": "> 100", "unit": "µM"}, {"measurement": "TGI", "setting": "HOP-92 NSCLC", "result": 96.3, "unit": "µM"}, {"measurement": "TGI", "setting": "M19-MEL melanoma", "result": "> 100", "unit": "µM"}, {"measurement": "TGI", "setting": "SF-295 CNS", "result": "> 100", "unit": "µM"}, {"measurement": "TGI", "setting": "MOLT-4 leukemia", "result": "> 100", "unit": "µM"}, {"measurement": "TGI", "setting": "SR leukemia", "result": "> 100", "unit": "µM"}, {"measurement": "TGI", "setting": "SNB-75 CNS", "result": 56.5, "unit": "µM"}, {"measurement": "TGI", "setting": "UACC-257 melanoma", "result": "> 100", "unit": "µM"}, {"measurement": "TGI", "setting": "A549 NSCLC", "result": "> 100", "unit": "µM"}, {"measurement": "TGI", "setting": "MALME-3M melanoma", "result": "> 100", "unit": "µM"}, {"measurement": "TGI", "setting": "IGROV1 ovarian", "result": "> 100", "unit": "µM"}, {"measurement": "TGI", "setting": "HCT-116 colon", "result": "> 100", "unit": "µM"}, {"measurement": "TGI", "setting": "XF 498 CNS", "result": 43.3, "unit": "µM"}, {"measurement": "TGI", "setting": "NCI-H460 lung", "result": "> 100", "unit": "µM"}, {"measurement": "TGI", "setting": "SK-OV-3 ovarian", "result": "> 100", "unit": "µM"}, {"measurement": "TGI", "setting": "ACHN renal", "result": "> 100", "unit": "µM"}, {"measurement": "TGI", "setting": "NCI-H23 lung", "result": "> 100", "unit": "µM"}, {"measurement": "TGI", "setting": "786-0 renal", "result": "> 100", "unit": "µM"}, {"measurement": "TGI", "setting": "SNB-19 CNS", "result": "> 100", "unit": "µM"}, {"measurement": "TGI", "setting": "K-562 leukemia", "result": "> 100", "unit": "µM"}, {"measurement": "TGI", "setting": "RPMI-8226 leukemia", "result": "> 100", "unit": "µM"}]}]}
